# Source: PubChem BioAssay (NCI)
# Values joined by “and” are separate entries in the source; they are usually repeats but may differ in a detail not shown here. Equal entries are not always repeated.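 Method: 48-hour compound exposure of cells in 96-well plates, five concentrations, linear interpolation of endpoints. Abbreviation: GI50, concentration required for 50% inhibition of growth. Definition used: TGI = concentration required for complete inhibition of growth.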
# Experiments:
# Assay in all cases: inhibition of tumour cell growth, NCI panel, 48 h
# NCI-H522 lung = test system: NCI-H522 lung
# BT-549 breast = test system: BT-549 breast
# SK-MEL-28 melanoma = test system: SK-MEL-28 melanoma
# MDA-MB-231 breast = test system: MDA-MB-231 breast
# SK-OV-3 ovarian = test system: SK-OV-3 ovarian
# MALME-3M melanoma = test system: MALME-3M melanoma
# NCI-H226 lung = test system: NCI-H226 lung
# MOLT-4 leukemia = test system: MOLT-4 leukemia
# A549 NSCLC = test system: A549 NSCLC
# RXF 393 renal = test system: RXF 393 renal
Compound,GI50 (NCI-H522 lung) [nM],TGI (NCI-H522 lung),GI50 (BT-549 breast) [µM],TGI (BT-549 breast) [µM],GI50 (SK-MEL-28 melanoma) [µM],TGI (SK-MEL-28 melanoma),GI50 (MDA-MB-231 breast) [µM],TGI (MDA-MB-231 breast) [µM],GI50 (SK-OV-3 ovarian) [µM],TGI (SK-OV-3 ovarian) [µM],GI50 (MALME-3M melanoma) [µM],TGI (MALME-3M melanoma),GI50 (NCI-H226 lung) [µM],TGI (NCI-H226 lung) [µM],GI50 (MOLT-4 leukemia) [µM],TGI (MOLT-4 leukemia),GI50 (A549 NSCLC) [µM],TGI (A549 NSCLC),GI50 (RXF 393 renal) [nM],TGI (RXF 393 renal)
Nc1nc(-c2ccccc2Cl)cc(-c2ccc(Cl)cc2Cl)n1,3270,23.3 µM,13.8,> 100,20.9,> 100 µM,9.3,> 100,10.1,62.3,17.7,> 100 µM,18.1,> 100,4.82,> 100 µM,4.81,> 100 µM,2670,10.7 µM
COc1cccc(-c2nn(C)c3sc(C(=O)NCCN4CCN(c5ccccc5F)CC4)cc23)c1,18800,> 100 µM,> 100,> 100,11.1,33.4 µM,3.87,62.4,> 100,> 100,9.49,53.5 µM,31.3,> 100,5.15,> 100 µM,15.3,> 100 µM,3170,> 100 µM
O=C1COCCN1c1ccc(NCc2cn(Cc3ccc(F)cc3)c3ccccc23)cc1,2750,17.8 µM,3.47,22.4,15.4,77.9 µM,4.9,27.5,1.65,8.14,3.47,15.4 µM,0.0593,0.275,11.6,> 68.9 µM,1.68,> 100 µM,911,5.76 µM
c1ccc2c(c1)-c1nc3ccccc3cc1C2N1CCOCC1 (stereo not drawn),,> 100 µM,,> 100,,> 100 µM,,> 100,,> 100,,> 100 µM,,> 100,,> 100 µM,,> 100 µM,,> 100 µM
COc1ccc2nc3c(cc2c1)C(=O)CC(C(F)(F)F)C3 (stereo not drawn),490,> 100 µM,3.1,> 100,1.26,> 100 µM,2.34,> 100,4.23,> 100,2.57,> 100 µM,3.28,> 100,0.108,> 100 µM,2.48,> 100 µM,562,5.1 µM
COc1ccc(-n2cc(-c3ccc(F)cc3)[nH]c2=O)cc1OC,> 100000,> 100 µM,> 100,> 100,> 100,> 100 µM,> 100,> 100,> 100,> 100,> 100,> 100 µM,> 100,> 100,> 100,> 100 µM,> 100,> 100 µM,> 100000,> 100 µM
COc1ccc(/C=C/c2cnnc3ccccc23)cc1OC,,> 10 µM,,> 10,,> 10 µM,,> 10,,> 10,,> 10 µM,,> 10,,> 10 µM,,> 10 µM,,> 10 µM
COc1cc(-c2cc(C(=O)N3CCN(C(=O)c4ccccc4NCc4cccs4)CC3)nc3cc(-c4ccccc4)nn23)cc(OC)c1OC,1670,4.68 µM,6.26,> 100,9.62,> 100 µM,8.67,> 100,5.5,> 100,> 100,> 100 µM,6.39,> 100,43.7,> 100 µM,5.68,> 100 µM,2450,8.01 µM
COc1ccc2c(c1)cn1c3ccc(OC)cc3[nH]c(=O)c21,< 13.4,0.15 µM,0.0407,1.17,< 0.0285,2.15 µM,< 0.0188,0.27,< 0.0192,4.48,,2.75 µM,0.059,8.97,< 0.0183,1.04 µM,< 0.0205,1.33 µM,25.7,1.79 µM
NC(CSC(c1ccccc1)(c1ccccc1)c1ccc(Br)cc1)C(=O)O (stereo not drawn),120,22.3 µM,0.971,> 57,0.366,31.7 µM,0.133,3.92,0.162,> 72.7,,> 88.6 µM,11.3,33.4,0.651,> 82.1 µM,0.375,> 82.3 µM,103,> 35.6 µM
COc1nc(C(Cl)(Cl)Cl)c(Cl)c(OC)c1Cl,,> 31.6 µM and 70.4 µM,,71.3,> 50.4,> 83.5 µM and 75.6 µM,,72.5,> 64.2,26.9,> 45.4,> 65.8 µM and 64.4 µM,,71.5,> 44.9,> 67.4 µM and 62.3 µM,> 52.5,> 88.9 µM and 77.8 µM,,> 55.1 µM and 71.8 µM
c1ccc(Oc2cnc3ccccc3n2)cc1,> 100000,> 100 µM,12,68.3,> 100,> 100 µM,> 100,> 100,> 100,> 100,> 100,> 100 µM,28.1,> 100,36.3,> 100 µM,> 100,> 100 µM,31900,> 100 µM
Cc1cnc2n(c1=O)Cc1ccccc1CO2,3800,18.8 µM,15.5,32.8,20.9,45.1 µM,11.8,32,41,> 100,19.8,44.9 µM,20.4,52.5,18.3,39.3 µM,28.7,> 100 µM,15200,36.8 µM
